Measurements reported in patent US7541342B2, “Use of PKC-activating compounds as cardioprotectants and as apoptosis-inducing anti-tumor agents” (University of Tennessee Research Foundation, priority 2005, dated 2009).
Where two headings read alike, the source gives them in different places.

Columns and labels:
PLS3 = PLS3 threonine phosphorylation (Ni bead pulldown, Western blot); type: cell-based; conditions: HeLa cells with His-tagged PLS3; AD 198 for 0, 2, 4, 6 h
Protocol: Cell Culture, Transfection, and Treatment: HeLa cells were cultured in Dulbecco's modified Eagle's medium (DMEM) containing 10% fetal bovine serum, 2 mM […] and penicillin (100 units/mL)-streptomycin (100 μg/mL) at 37° C. in a humidified 5% CO2 atmosphere. HeLa cells at 90% confluence were transfected with different mammalian expression vectors using LIPOFECTAMIN™ 2000 transfection reagent according to the manufacturer's protocol (Invitrogen Corporation, Carlsbad, Calif., United States of America). […] For down-regulation of PLS3, HeLa cells at 50% confluence were transfected with siRNA against PLS3 or a scrambled control. […] The whole cell lysate was extracted for analysis with Western blotting.
Purification of His-tagged Proteins from Transfected HeLa Cells: After washing with ice-cold PBS, HeLa cells transfected with the pCMV-PLS3 or PLS3(T21A) vector were incubated in lysis buffer (50 mM NaH2PO4, 500 mM NaCl, 20 mM imidazole, 1% Triton X-100, 20 mM 2-mercaptoethanol, pH 8.0) for 5 min and sonicated briefly on ice. The lysates were centrifuged at 10,000×g for 10 min at 4° C. […] Protein concentrations of the supernatants were measured with the Bio-Rad protein assay (Bio-Rad Laboratories, Hercules, Calif., United States of America) and each sample was adjusted to the same concentration. […] After washing, the beads were resuspended in SDS buffer and analyzed by Western blotting. […]

C57 mouse hearts = test: Langendorff perfused heart, global ischemia/reperfusion; conditions: 0.1 μM
Protocol: (§1) Perfusion studies were performed as described previously. See Pyle et al., Am. J. Physiol. Heart Circ. Physiol., 279, H1941-1948 (2000). Briefly, hearts were removed from methoxyflurane-anesthetized adult female Wistar rats, female C57 mice or progeny of C57B1/6J×129SvJae F1 heterozygous mice (provided by Dr. Robert O. Messing, University of California, San Francisco, Calif., United States of America; see also Jin, Z. Q. et al., Am. J. Physiol. Heart, Circ. Physiol., 282, H1970-1977 (2002)) bred to produce homozygous PKC-ε^−/−. Isolated hearts were cannulated in ice-cold modified Krebs-Henseleit buffer (4.7 mM KCl, 118 mM NaCl, 1.2 mM MgSO4, 1.3 mM CaCl2, 25 mM NaHCO3, 11 mM glucose, 1.2 mM KH2PO4, 0.05 mM EDTA, 2 mM lactic acid, pH 7.4) and then mounted on a Langendorff perfusion apparatus.
(§2) While mounted, hearts were placed in a 100 mL bath of oxygenated (95% O2/5% CO2), 37° C. modified Krebs-Henseleit buffer and perfused with the same at a pressure equal to 100 cm H2O. […] Pre-ischemic LVDP was calculated as the pressure difference between peak systolic pressure and EDP.
(§3) Baseline perfusion or drug perfusion in Modified Krebs-Henseleit buffer was carried out for 20 min followed by a 2-5 min washout of the perfused heart with Modified Krebs-Henseleit buffer plus vehicle. […] Post-ischemic LVDP was determined by averaging the last 10 min of post-ischemic reperfusion. […]

[1] = tested on: hearts of wild type and PKC-ε KO mice; test: Langendorff perfused heart, wild type and PKC-ε knockout mice; design: species or system mouse; conditions: 0.1 μM
Protocol: as §1, §2, §3

[2] = in vivo; for Affected Hearts (%) / MTS: female, CD1, mouse, iv, 7 weeks
[3] = i.v. single dose LD50 (30 days); conditions: female, CD1, mouse, in vivo, iv
[4] = In vivo drug distribution to heart; conditions: 2.5 mg/kg i.v. bolus, 5 min to 24 hr
[5] = tested on: neonatal rat ventricular myocytes (NRVM); test: ATP content (luciferin/luciferase) in anti-erbB-2 antibody treated NRVM; conditions: 200 nM drug 1 hr prior to anti-erbB-2 antibody
[6] = tested on: neonatal rat ventricular myocytes (NRVM); test: Mitochondrial redox activity (MTT) in anti-erbB-2 antibody treated NRVM; conditions: 200 nM drug 1 hr prior to anti-erbB-2 antibody
[7] = tested on: K562 cells overexpressing P-glycoprotein; test: IC50/IC90 cytotoxicity in drug-sensitive K562 (S) versus P-glycoprotein overexpressing K562 (R); conditions: 48 hours after 1 hour exposure

SMILES: CCCCC(=O)OCC(=O)[C@]1(O)Cc2c(O)c3c(c(O)c2[C@@H](O[C@H]2C[C@H](NCc4ccccc4)[C@H](O)[C@H](C)O2)C1)C(=O)c1c(OC)cccc1C3=O [AD 198, N-benzyladriamycin-14-valerate]
- threonine phosphorylation of PLS3 (PLS3): steadily increased
- Mean LVDP ± std. Error, Post-Ischemic (C57 mouse hearts): 41.0 ± 5.9 mm Hg
- Mean LVDP ± std. Error, Pre-Ischemic (C57 mouse hearts): 69.8 ± 13.6 mm Hg
- protection versus control (DMSO) [1]: not afforded significant protection
- Affected Hearts (%) ([2]; 2.3 mg/kg): 20%
- MTS ([2]; 2.3 mg/kg): 0.1
- Affected Hearts (%) ([2]; 4.6 mg/kg): 40%
- MTS ([2]; 4.6 mg/kg): 0.3
- Affected Hearts (%) ([2]; 9.2 mg/kg): 20%
- MTS ([2]; 9.2 mg/kg): 0.1
- cardiotoxicity at chronic dosing levels sufficient for DOX-induced cardiotoxicity ([2]; mouse): non-cardiotoxic
- LD50 at 30 days [3]: 46 mg/kg
- drug uptake into the heart [4]: not due to low drug uptake into the heart
- ATP depletion by anti-erbB-2 antibody after drug pretreatment [5]: 39%
- protection from anti-erbB-2-mediated depletion of redox activity (MTT) [6]: protected
- resistance based on comparison of IC90 values [7]: no significant resistance
- resistance, IC50 of resistant versus sensitive line [7]: 1.5 fold
